Laboratory results: PubChem BioAssay AID720512 (Broad Institute, 2013)
Calls of active or inactive are those of the source. How the calls were made is not given here.

Molecular target: Toxin B (TcdB) glycohydrolase, Clostridioides difficile 630
Assay: TcdB glycohydrolase inhibitors, dose response, biochemical, cherry-pick, plate reader (AID 720512)
Conditions: recombinant TcdB glycohydrolase activity

Q: How did the AC50 turn out when `CC(=O)N/C(=C\c1ccccc1)C(=O)Nc1ccc(O)cc1` was run?
A: > 39 µM (inactive)

Q: `Cc1ccc(N/N=C/c2c(O)n(-c3ccccc3)c(=O)[nH]c2=O)cc1` was tested. Which AC50 did it give?
A: 8.13 µM

Q: `COc1ccc(/C=C(/C#N)C(=O)Nc2ccc(O)cc2)cc1C(=O)O` was tested. Which AC50 did it give?
A: > 39 µM (inactive)

Q: `O=C(Nc1ccc(N2CCOCC2)c(Cl)c1)c1ccc(Cl)cc1` was tested. Which AC50 did it give?
A: > 39 µM (inactive)

Q: How did the AC50 turn out when `CCCNC(=O)N1CC[C@@H]2[C@@H](CO)N(C)c3ccc(-c4ccc(F)cc4)cc3[C@@H]21` was run?
A: > 42 µM (inactive)

Q: With `CCOc1ccccc1/C=C/c1onc(C)c1S(=O)(=O)N1CCC(C(=O)NC)CC1` as the compound, how does the AC50 read?
A: > 39 µM (inactive)

Q: `CCNC(=O)C[C@H]1CC[C@@H]2[C@@H](COc3ccc(NC(=O)c4cccc(OC)c4)cc3C(=O)N2C)O1` was tested. Which AC50 did it give?
A: > 39 µM (inactive)

Q: With `C/C(=N\Nc1cc(N2CCOCC2)ncn1)c1ccc(O)cc1` as the compound, how does the AC50 read?
A: > 39 µM (inactive)

Q: `C[C@H](CO)N1C[C@H](C)[C@@H](CN(C)C(=O)Nc2ccc(C(F)(F)F)cc2)Oc2c(NS(=O)(=O)c3ccccc3)cccc2C1=O` was tested. Which AC50 did it give?
A: > 39 µM (inactive)

Same assay, conditions: recombinant TcdB glycohydrolase activity, at 19.5 µM (top of the series)

Q: For `COc1ccc(NS(=O)CCCc2ccccc2)cc1` (stereo not given), which “activity change, negative = inhibition” value is on record?
A: inactive

Q: `COc1ccc(-c2ccc3c(c2)[C@H]2[C@H](CCN2C(=O)CN2CCOCC2)[C@@H](CO)N3)cc1` was tested. Which “activity change, negative = inhibition” value did it give?
A: inactive

Q: `COc1ccccc1Nc1nnc(SCc2cc(=O)n3ccsc3n2)s1` was tested. Which “activity change, negative = inhibition” value did it give?
A: inactive

Q: How did the “activity change, negative = inhibition” value turn out when `CC(=O)c1ccc(Nc2ccc(-c3ccccc3F)nn2)cc1` was run?
A: inactive

Q: Which “activity change, negative = inhibition” value does the source give for `Cc1ccc(/C=C/c2onc(C)c2S(=O)(=O)N2CCC(C(=O)N3CCCCC3)CC2)cc1` here?
A: inactive

Q: How did the “activity change, negative = inhibition” value turn out when `O=C(NNc1nc2c(F)cc(F)cc2s1)C1COc2ccccc2O1` (stereo not given) was run?
A: inactive

Q: With `COc1ccc(NC(=O)CN(C)C(=O)c2cccc(NS(=O)(=O)c3ccc(Br)cc3)c2)cc1` as the compound, how does the “activity change, negative = inhibition” value read?
A: inactive

Q: With `O=C(O)c1ccccc1NC(=O)N1C[C@H]2C[C@@H](C1)c1cccc(=O)n1C2` as the compound, how does the “activity change, negative = inhibition” value read?
A: inactive

Q: How did the “activity change, negative = inhibition” value turn out when `CN1C(=O)C(c2nnc(Nc3cccc4ccccc34)s2)C2CC1(C)Oc1ccccc12` (stereo not given) was run?
A: inactive

Q: For `O=C(Nc1ccc(N2CCOCC2)c(Cl)c1)c1ccc2c(c1)OCCO2`, which “activity change, negative = inhibition” value is on record?
A: inactive

Q: `Cc1c(-n2c(O)c(C3=c4ccccc4=NC3=O)sc2=S)c(=O)n(-c2ccccc2)n1C` was tested. Which “activity change, negative = inhibition” value did it give?
A: inactive

Q: For `COc1ccccc1Oc1cn[nH]c1-c1ccc(O)cc1O`, which “activity change, negative = inhibition” value is on record?
A: inactive

Q: How did the “activity change, negative = inhibition” value turn out when `COc1cccc2sc(NNC(=O)C3COc4ccccc4O3)nc12` (stereo not given) was run?
A: inactive

Q: With `COc1ccccc1OCC(=O)Nc1ccc(-c2nnc(-c3ccco3)o2)cc1` as the compound, how does the “activity change, negative = inhibition” value read?
A: inactive

Q: How did the “activity change, negative = inhibition” value turn out when `CC(OC(=O)c1cccnc1Cl)C(=O)NC1CCCCC1` (stereo not given) was run?
A: inactive

Q: How did the “activity change, negative = inhibition” value turn out when `CCN1CC(CNCc2cn(-c3ccc(OC)cc3)nc2-c2ccccc2Cl)CC1=O` (stereo not given) was run?
A: inactive

Q: `C[C@H](CO)N1C[C@H](C)[C@@H](CN(C)C(=O)Nc2ccc(C(F)(F)F)cc2)Oc2ccc(NC(=O)C3CCCCC3)cc2C1=O` was tested. Which “activity change, negative = inhibition” value did it give?
A: inactive

Q: How did the “activity change, negative = inhibition” value turn out when `O=c1ccc2cc(O)c(O)cc2o1` was run?
A: inactive

Q: Which “activity change, negative = inhibition” value does the source give for `CC(Sc1nc(N)cc(=O)[nH]1)C(=O)NCC(=O)Nc1ccc(F)c(F)c1F` (stereo not given) here?
A: inactive

Q: `COc1ccc(C2=NS(=O)(=O)N(C)C(C(=O)N(C)Cc3ccccc3)=C2)cc1OC` was tested. Which “activity change, negative = inhibition” value did it give?
A: inactive

Q: How did the “activity change, negative = inhibition” value turn out when `COc1cc(/C=N/NC(=O)Cn2nnc3ccccc32)ccc1O` was run?
A: inactive

Q: How did the “activity change, negative = inhibition” value turn out when `CNC(=O)C1CCN(S(=O)(=O)c2c(C)noc2/C=C/c2cccc(OC)c2)CC1` was run?
A: inactive

Q: How did the “activity change, negative = inhibition” value turn out when `O=C(Nc1ccncc1)c1ccc(-c2ccccc2)cc1` was run?
A: inactive

Q: `CN1C(=O)NC(c2ccc(O)cc2)C2=C1CN(c1ccc(O)cc1)C2=O` (stereo not given) was tested. Which “activity change, negative = inhibition” value did it give?
A: inactive

Q: With `CS(=O)(=O)Nc1cccc(C2=NN(C(=O)c3ccccc3)C(c3cccs3)C2)c1` (stereo not given) as the compound, how does the “activity change, negative = inhibition” value read?
A: inactive

Q: `Cc1onc(-c2ccccc2)c1C(=O)N(Cc1ccco1)Cc1cccs1` was tested. Which “activity change, negative = inhibition” value did it give?
A: inactive

Q: For `COc1ccc(-c2ccc3c(c2)[C@H]2[C@H](CCN2C(=O)Cc2cccnc2)[C@@H](CO)N3C)cc1`, which “activity change, negative = inhibition” value is on record?
A: inactive

Q: With `O=S(=O)(c1ccccc1)N1CCN=C1SCc1ccccc1` as the compound, how does the “activity change, negative = inhibition” value read?
A: inactive

Q: For `Nc1c(Cl)ncnc1NCCc1ccc(O)cc1`, which “activity change, negative = inhibition” value is on record?
A: inactive

Q: For `CN(C)c1ccc(NC(=O)/C=C/c2c(Cl)cccc2Cl)cc1`, which “activity change, negative = inhibition” value is on record?
A: inactive

Q: With `Cc1ccc(CN2C(=O)CN=C(c3ccccc3)c3ccccc32)cc1` as the compound, how does the “activity change, negative = inhibition” value read?
A: inactive

Q: With `O=C(O)C1C(=O)NCC1c1ccccc1` (stereo not given) as the compound, how does the “activity change, negative = inhibition” value read?
A: inactive

Q: Which “activity change, negative = inhibition” value does the source give for `O=C(Nc1ccc(O)cc1)/C(=C\c1cccs1)NC(=O)c1ccccc1` here?
A: inactive

Q: Which “activity change, negative = inhibition” value does the source give for `Nc1cc(=O)[nH]c(SCC(=O)Nc2ccccc2Sc2ccc(Cl)cc2)n1` here?
A: inactive

Q: `O=S(=O)(Oc1ccccc1-c1ccccc1)c1ccccc1` was tested. Which “activity change, negative = inhibition” value did it give?
A: inactive

Q: Which “activity change, negative = inhibition” value does the source give for `CCNC(=O)C[C@@H]1CC[C@H]2[C@H](COc3ccc(NC(C)=O)cc3C(=O)N2C)O1` here?
A: inactive
